From article PMC4601599, “High-resolution structures of Lactobacillus salivarius transketolase in the presence and absence of thiamine pyrophosphate” (Acta Crystallographica. Section F, Structural Biology …, 2015)

Columns and labels:
[1] = target: T1, LsTktA (Lactobacillus salivarius UCC118 transketolase) (Ligilactobacillus salivarius, UniProt Q1WQU8); assay: X-ray crystal structure of co-crystal, […] A; assay type: binding; settings: Mg2+; co-crystallised with 0.5 mM TPP and 2 mM MgCl2; pH 7.5; 293 K; site at dimer interface
T1 construct: gene tktA; pOPINF, His-tagged, expressed in E. coli Rosetta pLysS (DE3); 680 residues with tag; 662 residues modelled; homodimer; megaplasmid pMP118-encoded
T1 sequence (Q1WQU8 1-663): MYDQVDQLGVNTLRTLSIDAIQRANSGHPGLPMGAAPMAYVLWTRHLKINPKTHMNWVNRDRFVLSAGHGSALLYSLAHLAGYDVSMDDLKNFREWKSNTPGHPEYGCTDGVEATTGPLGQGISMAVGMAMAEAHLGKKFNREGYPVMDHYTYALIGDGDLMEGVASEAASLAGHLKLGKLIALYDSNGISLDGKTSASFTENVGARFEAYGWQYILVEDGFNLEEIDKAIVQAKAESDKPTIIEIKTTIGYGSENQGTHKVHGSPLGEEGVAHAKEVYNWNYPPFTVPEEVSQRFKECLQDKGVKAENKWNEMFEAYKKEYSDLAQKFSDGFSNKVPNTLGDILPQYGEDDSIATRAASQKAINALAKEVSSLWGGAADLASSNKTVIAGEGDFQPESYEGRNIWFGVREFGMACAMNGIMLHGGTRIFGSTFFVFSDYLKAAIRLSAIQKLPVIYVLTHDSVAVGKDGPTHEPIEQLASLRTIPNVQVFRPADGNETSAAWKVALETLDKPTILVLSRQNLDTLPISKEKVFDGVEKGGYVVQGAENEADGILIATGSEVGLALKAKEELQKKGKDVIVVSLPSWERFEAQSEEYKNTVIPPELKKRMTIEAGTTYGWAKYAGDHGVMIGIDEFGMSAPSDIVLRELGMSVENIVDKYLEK

[2] = target: the molecule itself; assay: SEC-MALS; Superdex 200 Increase 10/300 GL, 20 mM Tris-HCl pH 7.5, 200 mM NaCl, 0.5 mM TCEP, 20 C, with and without 0.5 mM TPP; about 1 mg/ml; dimer and monomer

Cc1ncc(C[n+]2csc(CCOP(=O)(O)OP(=O)(O)O)c2C)c(N)n1 [thiamine pyrophosphate]
X-ray crystal structure of co-crystal, 2.29 A [1]: Two symmetrical TPP cofactor-binding sites are located at the LsTktA dimer interface

B1: Lactobacillus salivarius UCC118 transketolase (LsTktA) (enzyme, UniProt Q1WQU8 1-663, looked up)
chain: T1 sequence (Q1WQU8 1-663)
notes: Transketolase (tktA, LSL_1946) of Lactobacillus salivarius UCC118, encoded on the megaplasmid pMP118; the histidine-tagged protein consists of 680 amino acids; 662 amino acids are modelled in the crystal structures; Crystallised apo and with TPP and Mg2+; also called L. salivarius Tkt; LSL_1946; source: E. coli Rosetta pLysS (DE3), purified (nickel-chelation chromatography, gel filtration)
stoichiometry N [2]: 2
